# Assay results taken from ChEMBL document CHEMBL4390652, “Design, biological evaluation and X-ray crystallography of nanomolar multifunctional ligands targeting simultaneously acetylcholinesterase and glycogen synthase kinase-3” (Eur J Med Chem, 2019).
# Assays:
# NCI-H727 = assay: Cytotoxicity against human NCI-H727 cells assessed as growth inhibition incubated for 48 hrs by Hoechst 33342 staining based assay; format: cell-based; conditions: NCI-H727, 48 h
# [1] = test system: Tyrosine-protein kinase ABL1 (Homo sapiens), P00519 [M351T]; assay: Binding affinity to human phosphorylated ABL1 M351T mutant (S229 to K512 residues) expressed in mammalian expression system assessed as residual binding level at 10 uM by Kinomescan method relative to control
# [2] = target: RAC-beta serine/threonine-protein kinase (Homo sapiens) (UniProt P31751); assay: Binding affinity to wild-type human partial length AKT2 expressed in bacterial expression system assessed as residual binding level at 10 uM by Kinomescan method relative to control
# [3] = target: Calcium/calmodulin-dependent protein kinase type 1G (Homo sapiens) (UniProt Q96NX5); assay: Binding affinity to wild-type human partial length CAMK1G (M1 to A342 residues) expressed in bacterial expression system assessed as residual binding level at 10 uM by Kinomescan method relative to control
# [4] = target: Calcium/calmodulin-dependent protein kinase kinase 2 (Homo sapiens) (UniProt Q96RR4); assay: Binding affinity to wild-type human partial length CAMKK2 (D65 to V471 residues) expressed in bacterial expression system assessed as residual binding level at 10 uM by Kinomescan method relative to control
# [5] = test system: Epidermal growth factor receptor (Homo sapiens), P00533 [L858R,T790M]; assay: Binding affinity to human partial length EGFR L858R/T790M double mutant (R669 to V1011 residues) expressed in mammalian expression system assessed as residual binding level at 10 uM by Kinomescan method relative to control
# [6] = target: Serine/threonine-protein kinase haspin (Homo sapiens) (UniProt Q8TF76); assay: Binding affinity to wild-type human partial length HASPIN (I452 to K798 residues) expressed in mammalian expression system assessed as residual binding level at 10 uM by Kinomescan method relative to control
# [7] = target: Homeodomain-interacting protein kinase 1 (Homo sapiens) (UniProt Q86Z02); assay: Binding affinity to wild-type human partial length HIPK1 (M146 to I555 residues) expressed in mammalian expression system assessed as residual binding level at 10 uM by Kinomescan method relative to control
# [8] = target: Mast/stem cell growth factor receptor Kit (Homo sapiens) (UniProt P10721); assay: Binding affinity to wild-type human partial length KIT (I571 to D952 residues) expressed in bacterial expression system assessed as residual binding level at 10 uM by Kinomescan method relative to control
# [9] = test system: Mast/stem cell growth factor receptor Kit (Homo sapiens), P10721 [V559D,T670I]; assay: Binding affinity to human partial length KIT V559D/T670I double mutant (Y545 to D952 residues) expressed in bacterial expression system assessed as residual binding level at 10 uM by Kinomescan method relative to control
# [10] = target: Serine/threonine-protein kinase MAK (Homo sapiens) (UniProt P20794); assay: Binding affinity to wild-type human partial length MAK (M1 to P314 residues) expressed in bacterial expression system assessed as residual binding level at 10 uM by Kinomescan method relative to control
# [11] = target: MAP/microtubule affinity-regulating kinase 3 (Homo sapiens) (UniProt P27448); assay: Binding affinity to wild-type human full length MARK3 (M1 to L729 residues) expressed in bacterial expression system assessed as residual binding level at 10 uM by Kinomescan method relative to control
# [12] = target: Serine/threonine-protein kinase mTOR (Homo sapiens) (UniProt P42345); assay: Binding affinity to wild-type human partial length MTOR (L1382 to W2549 residues) expressed in mammalian expression system assessed as residual binding level at 10 uM by Kinomescan method relative to control
# [13] = target: Serine/threonine-protein kinase Nek6 (Homo sapiens) (UniProt Q9HC98); assay: Binding affinity to wild-type human full length NEK6 (M8 to T313 residues) expressed in bacterial expression system assessed as residual binding level at 10 uM by Kinomescan method relative to control
# [14] = target: Mitogen-activated protein kinase 11 (Homo sapiens) (UniProt Q15759); assay: Binding affinity to wild-type human full length p38-beta (M1 to Q364 residues) expressed in bacterial expression system assessed as residual binding level at 10 uM by Kinomescan method relative to control
# [15] = target: Serine/threonine-protein kinase PAK 3 (Homo sapiens) (UniProt O75914); assay: Binding affinity to wild-type human full length PAK3 (M1 to R544 residues) expressed in bacterial expression system assessed as residual binding level at 10 uM by Kinomescan method relative to control
# [16] = target: Phosphorylase b kinase gamma catalytic chain, liver/testis isoform (Homo sapiens) (UniProt P15735); assay: Binding affinity to wild-type human partial length PHKG2 (M1 to W300 residues) expressed in bacterial expression system assessed as residual binding level at 10 uM by Kinomescan method relative to control
# [17] = target: Serine/threonine-protein kinase N1 (Homo sapiens) (UniProt Q16512); assay: Binding affinity to wild-type human partial length PKN1 (E598 to C948 residues) expressed in bacterial expression system assessed as residual binding level at 10 uM by Kinomescan method relative to control
# [18] = target: Serine/threonine-protein kinase RIO3 (Homo sapiens) (UniProt O14730); assay: Binding affinity to wild-type human full length RIOK3 (M1 to E519 residues) expressed in bacterial expression system assessed as residual binding level at 10 uM by Kinomescan method relative to control
# [19] = target: Ribosomal protein S6 kinase alpha-3 (Homo sapiens) (UniProt P51812); assay: Binding affinity to wild-type human partial length C-terminal RSK2 kinase domain 2 (V402 to S715 residues) expressed in mammalian expression system assessed as residual binding level at 10 uM by Kinomescan method relative to control
# [20] = target: SRSF protein kinase 1 (Homo sapiens) (UniProt Q96SB4); assay: Binding affinity to wild-type human full length SRPK1 (M1 to S655 residues) expressed in bacterial expression system assessed as residual binding level at 10 uM by Kinomescan method relative to control
# [21] = target: SRSF protein kinase 3 (Homo sapiens) (UniProt Q9UPE1); assay: Binding affinity to wild-type human partial length SRPK3 (P41 to P567 residues) expressed in bacterial expression system assessed as residual binding level at 10 uM by Kinomescan method relative to control
# [22] = target: Dual specificity protein kinase TTK (Homo sapiens) (UniProt P33981); assay: Binding affinity to wild-type human partial length TTK (N505 to V798 residues) expressed in bacterial expression system assessed as residual binding level at 10 uM by Kinomescan method relative to control
# [23] = target: Serine/threonine-protein kinase 32A (Homo sapiens) (UniProt Q8WU08); assay: Binding affinity to wild-type human full length YANK1 (M1 to L396 residues) expressed in mammalian expression system assessed as residual binding level at 10 uM by Kinomescan method relative to control
# Sequence of Serine/threonine-protein kinase RIO3 (Homo sapiens) (O14730 whole entry, the tested form may be a part): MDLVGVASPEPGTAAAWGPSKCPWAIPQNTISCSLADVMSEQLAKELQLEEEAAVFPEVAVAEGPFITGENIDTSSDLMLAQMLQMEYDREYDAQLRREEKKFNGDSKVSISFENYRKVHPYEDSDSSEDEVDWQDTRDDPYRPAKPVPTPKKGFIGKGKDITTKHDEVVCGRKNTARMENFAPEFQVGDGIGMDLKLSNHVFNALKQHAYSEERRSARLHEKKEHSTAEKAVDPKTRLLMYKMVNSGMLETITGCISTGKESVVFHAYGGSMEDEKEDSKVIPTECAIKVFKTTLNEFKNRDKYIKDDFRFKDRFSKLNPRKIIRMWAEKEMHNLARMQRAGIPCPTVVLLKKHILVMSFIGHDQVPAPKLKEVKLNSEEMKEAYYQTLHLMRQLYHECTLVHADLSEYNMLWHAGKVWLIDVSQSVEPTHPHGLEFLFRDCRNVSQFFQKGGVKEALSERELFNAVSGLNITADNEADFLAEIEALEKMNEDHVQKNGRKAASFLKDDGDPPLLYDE
# Sequence of SRSF protein kinase 3 (Homo sapiens) (Q9UPE1 whole entry, the tested form may be a part): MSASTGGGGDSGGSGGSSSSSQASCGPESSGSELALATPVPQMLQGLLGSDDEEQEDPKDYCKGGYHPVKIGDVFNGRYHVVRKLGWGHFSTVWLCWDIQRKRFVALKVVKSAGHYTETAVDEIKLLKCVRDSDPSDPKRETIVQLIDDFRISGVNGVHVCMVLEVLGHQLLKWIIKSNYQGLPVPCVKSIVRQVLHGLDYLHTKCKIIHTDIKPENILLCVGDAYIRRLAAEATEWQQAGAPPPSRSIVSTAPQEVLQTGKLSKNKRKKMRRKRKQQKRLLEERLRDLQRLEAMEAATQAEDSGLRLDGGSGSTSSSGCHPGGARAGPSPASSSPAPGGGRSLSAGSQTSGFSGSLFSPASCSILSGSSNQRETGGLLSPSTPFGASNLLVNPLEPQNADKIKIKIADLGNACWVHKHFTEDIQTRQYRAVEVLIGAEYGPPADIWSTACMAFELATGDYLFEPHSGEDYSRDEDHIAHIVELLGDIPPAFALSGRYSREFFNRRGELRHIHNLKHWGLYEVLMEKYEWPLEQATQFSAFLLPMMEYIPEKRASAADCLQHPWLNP
# Sequence of Calcium/calmodulin-dependent protein kinase kinase 2 (Homo sapiens) (Q96RR4 2-588 limits assumed): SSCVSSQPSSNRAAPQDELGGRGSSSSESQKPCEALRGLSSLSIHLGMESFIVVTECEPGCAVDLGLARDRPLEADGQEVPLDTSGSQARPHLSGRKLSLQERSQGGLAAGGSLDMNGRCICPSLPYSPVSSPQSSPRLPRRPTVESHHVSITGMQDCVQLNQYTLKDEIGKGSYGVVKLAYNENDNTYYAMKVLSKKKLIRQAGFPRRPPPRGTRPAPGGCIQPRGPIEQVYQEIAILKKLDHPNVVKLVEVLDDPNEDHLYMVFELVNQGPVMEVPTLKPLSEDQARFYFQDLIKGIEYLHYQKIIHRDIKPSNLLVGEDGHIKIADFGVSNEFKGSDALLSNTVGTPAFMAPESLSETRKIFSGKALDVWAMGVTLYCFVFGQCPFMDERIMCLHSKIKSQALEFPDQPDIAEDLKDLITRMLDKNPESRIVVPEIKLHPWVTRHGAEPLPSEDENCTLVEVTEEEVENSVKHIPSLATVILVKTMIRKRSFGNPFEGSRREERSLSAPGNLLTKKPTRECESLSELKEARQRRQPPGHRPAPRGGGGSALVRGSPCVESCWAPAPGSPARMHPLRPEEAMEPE
# Sequence of Ribosomal protein S6 kinase alpha-3 (Homo sapiens) (P51812 whole entry, the tested form may be a part): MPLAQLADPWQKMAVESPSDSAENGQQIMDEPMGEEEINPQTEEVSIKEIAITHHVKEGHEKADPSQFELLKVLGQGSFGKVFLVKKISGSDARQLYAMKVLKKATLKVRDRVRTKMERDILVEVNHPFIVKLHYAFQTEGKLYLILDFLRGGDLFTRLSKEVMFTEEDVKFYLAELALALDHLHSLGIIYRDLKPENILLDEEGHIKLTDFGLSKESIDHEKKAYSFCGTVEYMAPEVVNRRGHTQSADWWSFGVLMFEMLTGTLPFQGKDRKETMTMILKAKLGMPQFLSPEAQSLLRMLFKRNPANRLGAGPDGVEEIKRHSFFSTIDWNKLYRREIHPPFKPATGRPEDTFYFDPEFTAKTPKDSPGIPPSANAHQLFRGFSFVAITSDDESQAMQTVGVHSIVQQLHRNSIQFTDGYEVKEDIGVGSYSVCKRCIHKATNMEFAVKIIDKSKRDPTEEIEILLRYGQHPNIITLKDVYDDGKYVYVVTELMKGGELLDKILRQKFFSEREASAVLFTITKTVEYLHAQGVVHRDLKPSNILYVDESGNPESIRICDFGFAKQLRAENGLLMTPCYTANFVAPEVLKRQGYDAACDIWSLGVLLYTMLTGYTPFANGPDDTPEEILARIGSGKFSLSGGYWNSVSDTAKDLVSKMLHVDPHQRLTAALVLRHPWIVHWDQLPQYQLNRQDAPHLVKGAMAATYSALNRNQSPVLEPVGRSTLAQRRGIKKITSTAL
# Sequence of Serine/threonine-protein kinase MAK (Homo sapiens) (P20794 whole entry, the tested form may be a part): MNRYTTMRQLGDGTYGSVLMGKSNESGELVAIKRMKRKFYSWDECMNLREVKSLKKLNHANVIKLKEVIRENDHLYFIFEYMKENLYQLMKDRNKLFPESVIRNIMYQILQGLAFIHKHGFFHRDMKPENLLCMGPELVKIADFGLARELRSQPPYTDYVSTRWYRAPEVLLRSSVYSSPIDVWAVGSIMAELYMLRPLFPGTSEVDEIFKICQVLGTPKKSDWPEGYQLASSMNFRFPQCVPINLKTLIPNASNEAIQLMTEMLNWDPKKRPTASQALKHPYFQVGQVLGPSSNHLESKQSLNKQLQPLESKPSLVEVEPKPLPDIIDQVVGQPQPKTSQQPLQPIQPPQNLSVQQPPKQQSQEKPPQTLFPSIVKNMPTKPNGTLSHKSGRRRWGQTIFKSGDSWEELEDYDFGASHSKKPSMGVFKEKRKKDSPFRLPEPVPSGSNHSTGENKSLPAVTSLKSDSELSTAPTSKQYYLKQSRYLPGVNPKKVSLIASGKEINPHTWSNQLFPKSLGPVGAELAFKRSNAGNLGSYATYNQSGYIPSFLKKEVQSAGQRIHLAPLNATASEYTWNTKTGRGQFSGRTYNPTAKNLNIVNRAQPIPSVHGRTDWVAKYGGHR
# Sequence of Serine/threonine-protein kinase Nek6 (Homo sapiens) (Q9HC98 whole entry, the tested form may be a part): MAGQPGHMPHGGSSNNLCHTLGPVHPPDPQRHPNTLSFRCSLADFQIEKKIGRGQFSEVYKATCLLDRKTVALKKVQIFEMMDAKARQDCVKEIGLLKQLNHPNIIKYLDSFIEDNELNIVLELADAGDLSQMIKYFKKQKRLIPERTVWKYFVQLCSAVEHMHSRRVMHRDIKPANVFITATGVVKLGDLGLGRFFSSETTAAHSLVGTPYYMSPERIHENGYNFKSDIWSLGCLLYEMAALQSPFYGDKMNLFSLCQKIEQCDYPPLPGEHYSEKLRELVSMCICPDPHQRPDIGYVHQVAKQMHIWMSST
# Sequence of MAP/microtubule affinity-regulating kinase 3 (Homo sapiens) (P27448 whole entry, looked up, the tested form may be a part): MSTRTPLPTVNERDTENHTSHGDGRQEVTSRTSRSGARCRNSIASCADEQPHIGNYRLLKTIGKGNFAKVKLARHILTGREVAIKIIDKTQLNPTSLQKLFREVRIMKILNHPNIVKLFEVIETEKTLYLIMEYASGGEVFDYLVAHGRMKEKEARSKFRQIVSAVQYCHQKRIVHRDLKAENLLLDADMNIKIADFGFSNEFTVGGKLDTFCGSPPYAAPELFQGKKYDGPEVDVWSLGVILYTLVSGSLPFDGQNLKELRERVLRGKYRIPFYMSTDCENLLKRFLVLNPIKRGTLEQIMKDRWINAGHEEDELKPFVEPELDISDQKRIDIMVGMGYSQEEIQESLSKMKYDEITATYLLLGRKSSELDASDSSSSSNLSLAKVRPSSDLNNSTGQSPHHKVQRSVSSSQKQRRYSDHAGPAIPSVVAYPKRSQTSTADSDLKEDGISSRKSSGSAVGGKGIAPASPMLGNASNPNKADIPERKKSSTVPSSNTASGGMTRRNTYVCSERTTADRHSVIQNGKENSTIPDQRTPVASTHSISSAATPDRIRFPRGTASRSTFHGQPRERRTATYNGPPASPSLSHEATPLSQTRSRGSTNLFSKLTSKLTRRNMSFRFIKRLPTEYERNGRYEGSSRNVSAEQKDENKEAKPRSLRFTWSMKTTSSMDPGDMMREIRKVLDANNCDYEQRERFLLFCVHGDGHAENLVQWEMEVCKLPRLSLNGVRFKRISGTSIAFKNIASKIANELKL
# Sequence of Phosphorylase b kinase gamma catalytic chain, liver/testis isoform (Homo sapiens) (P15735 whole entry, the tested form may be a part, canonical isoform): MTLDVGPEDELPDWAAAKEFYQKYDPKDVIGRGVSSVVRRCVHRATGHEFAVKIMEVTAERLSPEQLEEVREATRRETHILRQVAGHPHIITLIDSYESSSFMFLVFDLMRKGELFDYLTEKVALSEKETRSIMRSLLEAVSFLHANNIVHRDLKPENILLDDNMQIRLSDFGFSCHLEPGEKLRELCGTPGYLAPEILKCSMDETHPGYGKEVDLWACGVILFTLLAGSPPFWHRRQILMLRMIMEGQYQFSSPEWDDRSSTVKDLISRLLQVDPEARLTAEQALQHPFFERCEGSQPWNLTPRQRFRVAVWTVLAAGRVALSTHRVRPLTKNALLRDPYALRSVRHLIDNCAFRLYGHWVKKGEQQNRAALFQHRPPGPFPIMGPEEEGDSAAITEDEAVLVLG
# Sequence of Calcium/calmodulin-dependent protein kinase type 1G (Homo sapiens) (Q96NX5 whole entry, the tested form may be a part): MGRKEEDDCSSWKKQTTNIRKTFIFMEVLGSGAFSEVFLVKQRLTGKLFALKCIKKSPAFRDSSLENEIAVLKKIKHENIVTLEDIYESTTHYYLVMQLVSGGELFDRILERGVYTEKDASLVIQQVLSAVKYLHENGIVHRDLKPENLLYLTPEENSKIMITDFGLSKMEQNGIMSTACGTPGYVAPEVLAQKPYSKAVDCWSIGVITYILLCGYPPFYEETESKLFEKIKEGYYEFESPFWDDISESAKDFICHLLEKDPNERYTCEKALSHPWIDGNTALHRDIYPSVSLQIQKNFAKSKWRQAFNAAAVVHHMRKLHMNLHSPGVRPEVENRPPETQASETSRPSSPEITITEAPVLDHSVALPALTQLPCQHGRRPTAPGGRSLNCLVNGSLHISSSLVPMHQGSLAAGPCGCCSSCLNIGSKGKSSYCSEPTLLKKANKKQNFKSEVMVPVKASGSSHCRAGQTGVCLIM
structure (smiles),measurement,setting,value
O=C(Nc1cc(-c2cn(CCNc3c4c(nc5ccccc35)CCCC4)nn2)ccn1)Nc1cccc2c1C1CCCCN1C2=O (racemic),IC50,NCI-H727,2000 nM
same,Activity,[1],2.1%
same,Activity,[2],80%
same,Activity,[3],44%
same,Activity,[4],18%
same,Activity,[5],87%
same,Activity,[6],3.9%
same,Activity,[7],43%
same,Activity,[8],0.25%
same,Activity,[9],3.4%
same,Activity,[10],52%
same,Activity,[11],91%
same,Activity,[12],100%
same,Activity,[13],28%
same,Activity,[14],74%
same,Activity,[15],40%
same,Activity,[16],50%
same,Activity,[17],18%
same,Activity,[18],11%
same,Activity,[19],100%
same,Activity,[20],8.2%
same,Activity,[21],15%
same,Activity,[22],9.9%
same,Activity,[23],95%
